Measurements reported in patent US8026217B2, “Compositions and methods for treating neural anoxia and spreading depression” (Florida Atlantic University, priority 2007, dated 2011).
Entries after “also recorded” stand apart in the source; their conditions may differ.

How the values were obtained:
[1] = test system: metathoracic ganglion of the locust; experiment: SD-like events evoked by high-potassium (KCl 150 mM) injection into the locust metathoracic ganglion; assay type: in vivo, Locusta migratoria
Excerpt: CSD is increasingly accepted as a primary causative agent for migraine, particularly migraine with aura. The cellular mechanisms underlying stroke, seizures and migraine are not exclusive to mammals. Using the locust (Locusta migratoria), a proven model for examining the effects of heat stress on CNS activity, a rapid rise in extracellular potassium ([K^+]o) during anoxia/hypoxia, extreme heat, and ouabain exposure was monitored. This phenomenon has all the characteristics of SD in the neocortex of mammals. Since the physiological mechanisms observed in locust SD-like events are similar to that of mammals, findings in this insect model are predictably transferable to mammals, including humans. In the locust, model SD-like events were triggered in the CNS by injecting small volumes of saline containing high levels of potassium ions (KCl at 150 mM instead of the nominal resting level of 10 mM) into the metathoracic ganglion. Potassium-sensitive microelectrodes were used to measure SD generated by KCl injections, while manipulating the PKG pathway.
This tissue response is characterised by a transient surge and subsequent clearance of potassium ions in the extracellular space ([K^+]o). During SD-like events ventilatory motor activity ceases. This was monitored using an electromyographic electrode positioned on an abdominal muscle used for ventilation (Ventilatory EMG). Upon restoration of the potassium ion gradient the neural activity recovered and preparations began to ventilate again.
The first injection was used as a control. Following the first injection, animals were allowed 10 minutes of perfusion with standard locust saline before treatment with bath applications of selected drugs (i.e. KT5823, T-0156). All drugs were dissolved in a minimum amount of DMSO before further dilution with standard locust saline to a concentration of 10^−5M and were superfused over the metathoracic ganglion for 10 minutes before the second injection. A total of 20 minutes elapsed between the first and second injection in all experiments. As shown in Figure (Bi), duration at half the maximum amplitude was used to characterize the severity of SD-like events. A significant increase was observed following the second injection when compared to the first in control animals. […] Heat shock (HS) preconditioning reduced SD duration evoked by the first and second injections. […] Numbers in the histogram bars indicate number of preparations tested. Asterisks indicate statistically significant differences between the first and second injection ([…]).
Motor pattern activity was not measured for T-0156/Cantharidin treatments. […] Figure (Cii) illustrates the drug effects by showing the percentage difference in rhythm recovery time (second injection relative to first injection).
Single SD events were evoked by injection of saline (50 nL) containing elevated potassium chloride (150 mM vs. 10 mM) directly into the metathoracic ganglion. […] During SD, ventilatory motor activity monitored electromyographically (EMG) ceased and recovered upon restoration of the potassium ion gradient. The duration of the [K^+]o wave at half its maximal amplitude and the time from failure of motor patterning to the recovery of a ventilatory rhythm were measured. […] Numbers in brackets represent sample size.
As in Example 3, SD events were evoked by injection of saline (50 nL) containing elevated potassium chloride (150 mM vs. 10 mM) directly into the metathoracic ganglion of locust preparations.

[2] = test system: metathoracic ganglion of the locust; experiment: Repetitive SD triggered by ouabain in locust; assay type: in vivo, Locusta migratoria; conditions: for number of repetitive SD-like events in animals that generated SD: ouabain exposure, FIG. 2D; for baseline [K+]o levels during ouabain exposure: pre-treatment, FIG. 2E
Excerpt: In a second set of experiments, repetitive SD triggered by the ionic disturbance caused by ouabain (a specific inhibitor of the sodium/potassium pump that restores ionic gradients across cell membranes) was examined.
Pretreatment with a bath application of KT5823 prevented repetitive SD in 70% of animals. […] FIG. 2B illustrates a representative example in a single preparation of the eradication of repetitive SD by prior bath application of KT5823. FIG. 2C illustrates that KT5823 reduced the percentage of preparations showing repetitive SD in response to ouabain, while FIG. 2D illustrates that control and KT5823-treated preparations have fewer repetitive SD events.

PKG = PKG enzyme activity assay on heads of treated flies; assay type: biochemical, Drosophila melanogaster; conditions: heads of sitter flies treated in vivo with volatilized agent, versus sham control
Method: PKG enzyme activity assays: PKG enzyme activity assays were conducted according to the procedure outlined in Kaun et al. (J Exp Biol. 210(Pt 20):3547-3558, 2007). Adult Drosophila were decapitated and the heads were homogenized in 25 mM 1-1 Tris (pH 7.4), 1 mM 1-1 EDTA, 2 mM 1-1 EGTA, 5 mM 1-1 β-mercaptoethanol, 0.05% Triton X-100 and protease inhibitor solution (Roche Diagnostics). Following microcentrifugation for 5 min, the supernatant was removed and those supernatants containing equal amounts of total protein were examined for PKG enzyme activity. The reaction mixture contained the following substances: 40 mM 1-1 Tris-HCl (pH 7.4), 20 mM 1-1 magnesium acetate, 0.2 mM 1-1 [γ^32P]ATP (500-1000 c.p.m. pmol−1), […] heptapeptide (RKRSRAE), (SEQ ID NO:6), (3 mM 1-1 cGMP and a highly specific inhibitor of cAMP-dependent protein kinase. The next step of the procedure involved incubating the reaction mixtures at a temperature of 30° C. for 10 min, followed by ending the reaction by spotting 70 μl of the reaction mixture onto Whatman P-81 filters. To remove any unreacted [γ^32P]ATP, these spots were then soaked with 75 mM 1-1 H3PO4 for 5 min and washed three times with 75 mM 1-1 H3PO4. Before quantifying enzyme activity, filters were rinsed with 100% ethanol and air dried. To calculate PKG enzyme activity, counts were taken in a Wallac 1409 Liquid Scintillation Counter using universal scintillation cocktail (ICN). PKG activity was presented in the figures as pmol of ^32P incorporated into the substrate min−1 mg−1 protein.

respiratory brain slices = experiment: Neural function in respiratory brain slices during sodium azide-induced anoxia; set-up: species or system mouse or rat; conditions: expected
Excerpt: Neural function in mammals (mouse or rat) is examined pharmacologically during acute anoxia in respiratory brain slices via sodium azide, which chemically induces anoxia. Following administration of the sodium azide, the time until neural failure is monitored. This is done in the presence of a PDE5 inhibitor, 8-bromo-GMP, KT5823, and Cantharidin.

mammals (mouse or rat) = experiment: Spreading depression in mammals; assay type: in vivo; conditions: expected
Excerpt: The pharmacological effects of a PDE5 inhibitor, 8-bromo-GMP, KT5823, and Cantharidin during spreading depression are examined in mammals (mouse or rat).

Structure (SMILES)	recovery time of ventilatory rhythm, second event versus first ([1]; Example 3, drug applied for 10 minutes prior to second injection, FIG. 3D)	animals in which repetitive SD was generated ([2]; concomitantly treated with 10^-4 M ouabain) [%]	number of repetitive SD-like events in animals that generated SD [2]	baseline [K+]o levels during ouabain exposure [2]	head PKG enzyme activity (PKG; listed as 8-Bromo cGMP)	head PKG enzyme activity (PKG; listed as 8-bromo cGMP)	time until neural failure (respiratory brain slices)	SD-like events and neural function (mammals (mouse or rat))	length of time to recover ventilatory motor pattern activity after SD ([1]; Example 1, bath application 10^-5 M for 10 minutes before second KCl injection)	animals in which repetitive SD was prevented ([2]; pretreatment by bath application, then ouabain) [%]	head PKG enzyme activity (PKG)
Nc1nc2c(nc(Br)n2[C@@H]2O[C@@H]3COP(=O)(O)O[C@H]3[C@H]2O)c(=O)[nH]1 [8-Br-cGMP]	The recovery time was increased	100	significantly fewer SD-like events than 8-Br-cGMP-treated animals	did not raise the baseline [K^+]o levels above controls	demonstrated significant effects compared to that of the sham control	induced an increase in head PKG activity levels; also recorded: increasing head PKG activity levels significantly beyond rover levels	increased sensitivity to anoxia causing early failure of neural function	increased SD-like events causing early failure of neural function			
COC(=O)[C@@]1(OC)C[C@H]2O[C@]1(C)n1c3ccccc3c3c4c(c5c6ccccc6n2c5c31)C(=O)N(C)C4 [KT5823, (9S, 10R, 12R)-2,3,9,10,11,12-Hexahydro-10-methoxy-2-9-dimethyl-1-oxo-9,12-epoxy-1H-diindolo-[1,2,3-fg:3′,2′,1′-k1]pyrrolo[3,4-i][1,6]benzodiazocine-10-carboxylic acid methyl ester]			significantly more SD-like events than KT5823-treated animals	significantly reduces the baseline [K^+]o levels			neuroprotection and prolonged neural function when subject to anoxia	neuroprotection and reduces SD-like events thereby prolonging neural function	untreated preparations and those treated with T-0156 took significantly longer to recover	70	significantly reducing PKG activity; also recorded: demonstrated significant effects compared to that of the sham control
